This note sets out measurements from patent publication US8178658B2 (Dow AgroSciences, LLC, priority 2008, dated 2012).

Experiment [1] deals with beet armyworm (BAW; Spodoptera exigua: Lepidoptera). The experiment is described as follows: 128-well diet tray assay on beet armyworm (BAW 50). It is filed as in vivo. The following applies: for BAW 50 ug/cm2: 128-well diet tray assay, 50 μg/cm^2 of test compound on diet, second instar BAW larvae, mortality class. The method, boiled down:
(§1)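 Percent larval mortality after six days was the endpoint. Higher-throughput plates used eggs, 12 μg compound per well and 29° C darkness; trays used second instar larvae, a 50 μg/cm^2 dose and 25° C with 14:10 light cycle.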

The test system is the same in experiment [2]. Description: 96-well microtiter plate-based high throughput (HTS) diet bioassay on beet armyworm (BAW HTS). Format: in vivo. The following applies: for BAW HTS: BAW eggs, 12 μg test compound per well, mortality at 6 d post-treatment, mortality class. In a few lines:
as §1

Where [3] appears, read: 96-well microtiter plate HTS diet assay.

With `C=CCO[C@@H]1[C@@H](OC)[C@H](C)O[C@@H](OC(=O)Nc2ccc(-c3ncn(-c4ccc(OC(F)(F)C(F)(F)F)cc4)n3)cc2)[C@@H]1OC` [Compound 204], the “BAW 50 ug/cm2” value in experiment [1] is “A (the compound was tested and at least 50 percent mortality was observed)”. Moreover, the “BAW HTS” value was “A (the compound was tested and at least 50 percent mortality was observed)” in experiment [2] (96-well HTS diet assay); “A (the compound was tested and at least 50 percent mortality was observed)” in experiment [2] (setting [3]).
Turning to `C=CCO[C@@H]1[C@@H](OC)[C@H](C)O[C@@H](OC(=O)Nc2ccc(-c3ncn(-c4ccc(OC(F)(F)F)cc4)n3)cc2)[C@@H]1OC` [Compound 205], the “BAW 50 ug/cm2” value in experiment [1] was “A (the compound was tested and at least 50 percent mortality was observed)”. Besides, the “BAW HTS” value in experiment [2] (96-well HTS diet assay) was “A (the compound was tested and at least 50 percent mortality was observed)”; in experiment [2] (setting [3]), “A (the compound was tested and at least 50 percent mortality was observed)”.
For `CCO[C@@H]1[C@@H](OCC)[C@H](C)O[C@@H](OC(=O)Nc2ccc(-c3ncn(-c4ccc(OC(F)(F)C(F)(F)F)cc4)n3)cc2)[C@@H]1OCC` [Compound 206], the “BAW 50 ug/cm2” value in experiment [1] was “A (the compound was tested and at least 50 percent mortality was observed)”. In addition, the “BAW HTS” value in experiment [2] (96-well HTS diet assay) was “A (the compound was tested and at least 50 percent mortality was observed)”; in experiment [2] (setting [3]) it was “A (the compound was tested and at least 50 percent mortality was observed)”.
For `CCCO[C@@H]1[C@@H](OC)[C@H](C)O[C@@H](OC(=O)Nc2ccc(-c3ncn(-c4ccc(OC(F)(F)C(F)(F)F)cc4)n3)cc2)[C@@H]1OC` [Compound 207, {4-[1-(4-pentafluoroethyloxyphenyl)-1H-[1,2,4]triazol-3-yl]-phenyl}-carbamic acid (2S,3R,4R,5S,6S)-4-propoxy-3,5-dimethoxy-6-methyl-tetrahydropyran-2-yl ester], the “BAW 50 ug/cm2” value in experiment [1] was “A (the compound was tested and at least 50 percent mortality was observed)”. Further, the pest or weed control at 50 µg/cm2, 50 µg/cm2 in experiment [1] (Spodoptera exigua, 144 h, read-out: BAW 50 ug/cm2) was above 50%. Further, the “BAW HTS” value in experiment [2] (setting [3]) is “B (either (1) the compound was tested and less than 50 percent mortality was observed or (2) the compound was not tested)”. For the same compound, the pest or weed control at 12 µg/well, 12 µg/well in experiment [2] (Spodoptera exigua, 144 h, read-out: BAW HTS) is below 50%.
Take `CO[C@@H]1[C@@H](OC)[C@H](C)O[C@H](OC(=O)Nc2ccc(-c3ncn(-c4ccc(OC(F)(F)C(F)(F)F)cc4)n3)cc2)[C@@H]1OC` [Compound 208]: the “BAW 50 ug/cm2” value in experiment [1] is “A (the compound was tested and at least 50 percent mortality was observed)”. Further, the “BAW HTS” value is “A (the compound was tested and at least 50 percent mortality was observed)” in experiment [2] (96-well HTS diet assay); “A (the compound was tested and at least 50 percent mortality was observed)” in experiment [2] (setting [3]).
Consider `CCCO[C@@H]1[C@@H](OC)[C@H](C)O[C@@H](OC(=O)Nc2ccc(-c3ncn(-c4ccc(OC(F)(F)F)cc4)n3)cc2)[C@@H]1OC` [Compound 209], for which the “BAW 50 ug/cm2” value in experiment [1] was “A (the compound was tested and at least 50 percent mortality was observed)”. Also, the “BAW HTS” value in experiment [2] (96-well HTS diet assay) was “A (the compound was tested and at least 50 percent mortality was observed)”; in experiment [2] (setting [3]) it was “A (the compound was tested and at least 50 percent mortality was observed)”.
For the compound `CCO[C@@H]1[C@@H](OC)[C@H](C)O[C@H](OC(=O)Nc2ccc(-c3ncn(-c4ccc(OC(F)(F)F)cc4)n3)cc2)[C@@H]1OC` [Compound 210], the “BAW 50 ug/cm2” value in experiment [1] is “A (the compound was tested and at least 50 percent mortality was observed)”. Also, the “BAW HTS” value in experiment [2] (96-well HTS diet assay) was “A (the compound was tested and at least 50 percent mortality was observed)”; in experiment [2] (setting [3]), “A (the compound was tested and at least 50 percent mortality was observed)”.
In the case of `CCCO[C@@H]1[C@@H](OC)[C@H](C)O[C@@H](OC(=O)Nc2ccc(-c3ncn(-c4ccc(OC(F)(F)C(F)(F)C(F)(F)F)cc4)n3)cc2)[C@@H]1OC` [Compound 216], the “BAW 50 ug/cm2” value in experiment [1] was “A (the compound was tested and at least 50 percent mortality was observed)”. Also, the “BAW HTS” value in experiment [2] (96-well HTS diet assay) is “A (the compound was tested and at least 50 percent mortality was observed)”; in experiment [2] (setting [3]), “A (the compound was tested and at least 50 percent mortality was observed)”.
